Reference: PMC6272327, “Discovery of Metal Ions Chelator Quercetin Derivatives with Potent Anti-HCV Activities” (Molecules, 2015)
Like-named read-outs stand apart in the source and are kept apart here.

Tests used:
[1] = target: HCV NS5B polymerase; design: method as in PMID 14695815, PMID 15481971, PMID 15149686; settings: HCV NS5B polymerase inhibition, Figures 1 and 2; cited from earlier work
[2] = tested on: HCV infectious virus J399EM; design: method as in PMID 22445328; settings: cited from earlier work; for inhibition against HCV: at 50 μM, previous results
[3] = tested on: HCV RdRp; design: method as in PMID 25053847; settings: at the concentration of 20 μM in an enzyme assay; cited from earlier work
[4] = tested on: HCV infectious virus J399EM; assay: Anti-HCV assay in authentic HCV infection/replication system (J399EM EGFP reporter virus) in Huh7.5.1 cells; type: cell-based, hepatitis C virus (JFH1-derived, genotype 2a); settings: for SI (selectivity index): ratio of CC50 to EC50, Huh7.5.1 cells; for EC50: Hepatitis C virus, Huh-7.5.1, 72 h
Procedure: (§1) The inhibition of HCV by all synthesized quercetin derivatives was evaluated following a previously reported procedure. All newly synthesized compounds were tested in authentic HCV infection/replication system in the human hepatoma cell lines Huh7.5.1 using mycophenolic acid (MPA) as control compound. The cytotoxicity effect of the test compounds was also evaluated in the same cell line by MTT method. Antiviral effect and cytotoxicity effect were summarized as EC50 and CC50 respectively, as well as the selective index (SI) which is the ratio of CC50 to EC50. The stability of quercetin-3-O-ester compounds were also tested in the same buffer as the antiviral activity assay at 37 °C and the hydrolysate was measured by HPLC.
The biological assays were performed following a previously reported procedure. The Huh7.5.1 cell line and the HCV infectious virus J399EM were kindly provided by Xin-Wen Chen, Wuhan Institute of Virology, Chinese Academy of Sciences. Huh7.5.1 cells were cultured in Dulbecco’s modified Eagle’s medium (DMEM) containing 10% (v/v) fetal bovine serum, 0.5 mg/mL G418, 100 IU/mL penicillin, and […].
J399EM is an infectious HCV virus derived from the JFH1 virus (genotype 2a) by insertion of enhanced green fluorescent protein (EGFP) into the HCV NS5A region. The establishment of the infectious J399EM HCV virus has been described previously. J399EM was propagated in Huh7.5.1 cells. Briefly, Huh7.5.1 cells were infected with J399EM at MOI = 0.1 and cultured for 4 days. Culture supernatant was collected and filtered through a 0.45 μm membrane and stored at −80 °C as virus stock. Virus titer was tested in Huh7.5.1 cells. Stocks were serially diluted, and the foci forming units (FFU) were determined as the number of fluorescent colonies formed in infected Huh7.5.1.
All the compounds were first dissolved in DMSO at 50 mM, and then diluted to various concentrations (50 μM, 25 μM, 12.5 μM, 6.3 μM and 3.1 μM). Approximately 1 × 10^4 Huh7.5.1 cells per well were plated in an opaque 96-well tissue culture plate (Costar 3904). The next day, the medium was replaced by J399EM virus at an MOI of 0.3. Four hours later, the virus inoculum was removed and medium containing different concentrations of compounds was added. After an additional 72 h of incubation, the culture medium was removed and the EGFP autofluorescence was measured by using a […] with excitation at 488 nm and emission at 516 nm. Compounds and controls were performed in duplicate and each experiment repeated independently at least twice.

[5] = Cell viability / cytotoxicity by MTT method; type: cell-based; settings: human
Procedure: as §1
After the EGFP signal was read, cell viability was measured in the same plate by the MTT [3-(4,5-dimethylthiazol-2-yl)-2,5-diphenyltetrazolium bromide; Sigma-Aldrich, St. Louis, MO, USA] method. Briefly, MTT (1 mg/mL) was dissolved in PBS. Cell culture supernatants were removed and replaced with MTT and further cultured for 4 h; cells were then lysed with 10% sodium dodecyl sulfate (SDS), 50% N,N-dimethylformamide, pH 7.2. OD570 values were read. The percentage of cell death was calculated against the control well without compounds.

Molecule | IC50 [1] [µM] | SI (selectivity index) [4] | melting point [°C] | EC50 [4] [µM] | CC50 [5] [µM] | further results
N#Cc1c(Cl)cc(Cl)cc1COc1cccc(C(=O)/C=C(\O)C(=O)O)c1 [Compound 1b] | 0.045 |  |  |  |  | 
O=c1c(O)c(-c2ccc(O)cc2)oc2cc(O)cc(O)c12 [kaempferol] |  |  |  |  |  | inhibition against HCV [2]: 51.9%
COc1cc(-c2oc3cc(O)cc(O)c3c(=O)c2O)ccc1O [isorhamnetin] |  |  |  |  |  | inhibition against HCV [2]: 47.3%
O=C(O)c1nc(-c2cccs2)nc(O)c1O [Compound 1d, dihydroxypyrimidine carboxylic acid] | 2.6 |  |  |  |  | 
O=c1c(O)c(-c2ccc(O)c(O)c2)oc2cc(O)cc(O)c12 [Compound 2, quercetin] |  | >2.5 |  |  |  | inhibition of HCV RdRp [3]: 83.7%; EC50 ([2]; anti-HCV activity of quercetin, earlier work of the authors): 19.8 µM; CC50 ([5]; Huh7.5.1 cells, MTT, concentration required to reduce cell proliferation by 50%, average of duplicate determinations, read-out: CC50): > 50 µM
O=C(O)/C(O)=C/C(=O)c1ccccc1 [Compound 1a] | 5.7 |  |  |  |  | 
meconic acid [Compound 1c] | 2.3 |  |  |  |  | 
O=C(Oc1c(-c2ccc(O)c(O)c2)oc2cc(O)cc(O)c2c1=O)c1ccccc1 [Compound 4a, 2-(3,4-Dihydroxyphenyl)-5,7-dihydroxy-4-oxo-4H-chromen-3-yl benzoate] |  | >3.5 | 173 to 174 | 14.3 ± 5.1 | > 50 | 
O=c1c(O)c(-c2ccc(O)c(O)c2)oc2cc(OCc3ccc([N+](=O)[O-])cc3)cc(O)c12 [Compound 3s, 2-(3,4-Dihydroxyphenyl)-3,5-dihydroxy-7-((4-nitrobenzyl)oxy)-4H-chromen-4-one] |  | 4.5 | 253.5 to 254.5 | 4.3 ± 0.2 | 19.6 ± 0.2 | 
O=C(Oc1c(-c2ccc(O)c(O)c2)oc2cc(O)cc(O)c2c1=O)c1cccc(F)c1 [Compound 4f, 2-(3,4-Dihydroxyphenyl)-5,7-dihydroxy-4-oxo-4H-chromen-3-yl 3-fluorobenzoate] |  | >5.6 | 211 to 213 | 9 ± 4.5 | > 50 | 
CC(C)Oc1c(-c2ccc(O)c(O)c2)oc2cc(O)cc(O)c2c1=O [Compound 12b, 2-(3,4-Dihydroxyphenyl)-5,7-dihydroxy-3-isopropoxy-4H-chromen-4-one] |  | 0.7 | 259 to 262 | 38.9 ± 2.5 | 28.8 ± 2 | 
